Reference: patent publication US12618095B2, “Medium for Bacillus cereus group detection” (SHIMADZU DIAGNOSTICS CORPORATION, priority 2020, dated 2026)

What was measured:
Assay in all cases: Test Example 10: agar medium with aztreonam or ceftazidime
[1] = tested on: E. coli; assay type: cell-based; conditions: 22 hours; for Number of colonies: ATCC8739; for Number of colonies: key: +: Growth positive; −: Non-growth
[2] = tested on: B. cereus; conditions: 22 hours
[3] = tested on: E. amnigenus; conditions: 22 hours; for Number of colonies: ATCC33072
[4] = tested on: B. thuringiensis; conditions: NBRC101235, 22 hours
[5] = Ceftazidime 0.05 mg, 10^1 cfu/mL
[6] = Ceftazidime 0.05 mg, 10^2 cfu/mL
[7] = Ceftazidime 0.05 mg, 10^3 cfu/mL
[8] = Ceftazidime 0.05 mg, 10^4 cfu/mL
[9] = Ceftazidime 0.05 mg, 10^5 cfu/mL
[10] = Ceftazidime 0.5 mg, 10^1 cfu/mL
[11] = Ceftazidime 0.5 mg, 10^2 cfu/mL
[12] = Ceftazidime 0.5 mg, 10^3 cfu/mL
[13] = Ceftazidime 0.5 mg, 10^4 cfu/mL
[14] = Ceftazidime 0.5 mg, 10^5 cfu/mL

For CC(C)(O/N=C(\C(=O)N[C@@H]1C(=O)N2C(C(=O)[O-])=C(C[n+]3ccccc3)CS[C@H]12)c1csc(N)n1)C(=O)O [ceftazidime], the Number of colonies [1, 5] was “−”, the Number of colonies [1, 6] was “−” and the Number of colonies [1, 7] was “−”. For the same compound, the Number of colonies [1, 8] was “−”, the Number of colonies [1, 9] was “−” and the Number of colonies [1, 10] was “−”. The Number of colonies [1, 11] was “−”, the Number of colonies [1, 12] was “−” and the Number of colonies [1, 13] was “−”. The Number of colonies [1, 14] was “−”, the Number of colonies ([1]; Ceftazidime 5 mg, 10^1 cfu/mL) was “−” and the Number of colonies ([1]; Ceftazidime 5 mg, 10^2 cfu/mL) was “−”. The Number of colonies ([1]; Ceftazidime 5 mg, 10^3 cfu/mL) was “−”, the Number of colonies ([1]; Ceftazidime 5 mg, 10^4 cfu/mL) was “−” and the Number of colonies ([1]; Ceftazidime 5 mg, 10^5 cfu/mL) was “−”. For the same compound, the “formation of a white colony” value ([1]; added to TSA-BC, 30° C.) was “suppressed”, the Number of colonies ([2]; ATCC11778, Ceftazidime 0.05 mg, 10^1 cfu/mL) was 2 and the Number of colonies ([2]; ATCC11778, Ceftazidime 0.05 mg, 10^2 cfu/mL) was 11. The Number of colonies ([2]; ATCC11778, Ceftazidime 0.05 mg, 10^3 cfu/mL) was “+”, the Number of colonies ([2]; ATCC11778, Ceftazidime 0.05 mg, 10^4 cfu/mL) was “+” and the Number of colonies ([2]; ATCC11778, Ceftazidime 0.05 mg, 10^5 cfu/mL) was “+”. The Number of colonies ([2]; ATCC11778, Ceftazidime 0.5 mg, 10^1 cfu/mL) was “−”, the Number of colonies ([2]; ATCC11778, Ceftazidime 0.5 mg, 10^2 cfu/mL) was 13 and the Number of colonies ([2]; ATCC11778, Ceftazidime 0.5 mg, 10^3 cfu/mL) was “+”. The Number of colonies ([2]; ATCC11778, Ceftazidime 0.5 mg, 10^4 cfu/mL) was “+”, the Number of colonies ([2]; ATCC11778, Ceftazidime 0.5 mg, 10^5 cfu/mL) was “+” and the Number of colonies ([2]; ATCC11778, Ceftazidime 5 mg, 10^1 cfu/mL) was “−”. The Number of colonies ([2]; ATCC11778, Ceftazidime 5 mg, 10^2 cfu/mL) was 17, the Number of colonies ([2]; ATCC11778, Ceftazidime 5 mg, 10^3 cfu/mL) was “+” and the Number of colonies ([2]; ATCC11778, Ceftazidime 5 mg, 10^4 cfu/mL) was “+”. For the same compound, the Number of colonies ([2]; ATCC11778, Ceftazidime 5 mg, 10^5 cfu/mL) was “+”, the Number of colonies ([2]; ATCC19637, Ceftazidime 0.05 mg, 10^1 cfu/mL) was “−” and the Number of colonies ([2]; ATCC19637, Ceftazidime 0.05 mg, 10^2 cfu/mL) was 7. For the same compound, the Number of colonies ([2]; ATCC19637, Ceftazidime 0.05 mg, 10^3 cfu/mL) was “+”, the Number of colonies ([2]; ATCC19637, Ceftazidime 0.05 mg, 10^4 cfu/mL) was “+” and the Number of colonies ([2]; ATCC19637, Ceftazidime 0.05 mg, 10^5 cfu/mL) was “+”. The Number of colonies ([2]; ATCC19637, Ceftazidime 0.5 mg, 10^1 cfu/mL) was “−”, the Number of colonies ([2]; ATCC19637, Ceftazidime 0.5 mg, 10^2 cfu/mL) was 12 and the Number of colonies ([2]; ATCC19637, Ceftazidime 0.5 mg, 10^3 cfu/mL) was “+”. The Number of colonies ([2]; ATCC19637, Ceftazidime 0.5 mg, 10^4 cfu/mL) was “+”, the Number of colonies ([2]; ATCC19637, Ceftazidime 0.5 mg, 10^5 cfu/mL) was “+” and the Number of colonies ([2]; ATCC19637, Ceftazidime 5 mg, 10^1 cfu/mL) was 3. For the same compound, the Number of colonies ([2]; ATCC19637, Ceftazidime 5 mg, 10^2 cfu/mL) was 5, the Number of colonies ([2]; ATCC19637, Ceftazidime 5 mg, 10^3 cfu/mL) was “+” and the Number of colonies ([2]; ATCC19637, Ceftazidime 5 mg, 10^4 cfu/mL) was “+”. The Number of colonies ([2]; ATCC19637, Ceftazidime 5 mg, 10^5 cfu/mL) was “+”, the Number of colonies [3, 5] was “−” and the Number of colonies [3, 6] was “−”. For the same compound, the Number of colonies [3, 7] was 1, the Number of colonies [3, 8] was 33 and the Number of colonies [3, 9] was “+”. The Number of colonies [3, 10] was “−”, the Number of colonies [3, 11] was “−” and the Number of colonies [3, 12] was “−”. For the same compound, the Number of colonies [3, 13] was “−”, the Number of colonies [3, 14] was “−” and the Number of colonies ([3]; Ceftazidime 5 mg, 10^1 cfu/mL) was “−”. For the same compound, the Number of colonies ([3]; Ceftazidime 5 mg, 10^2 cfu/mL) was “−”, the Number of colonies ([3]; Ceftazidime 5 mg, 10^3 cfu/mL) was “−” and the Number of colonies ([3]; Ceftazidime 5 mg, 10^4 cfu/mL) was “−”. For the same compound, the Number of colonies ([3]; Ceftazidime 5 mg, 10^5 cfu/mL) was “−”, the “formation of a white colony” value ([3]; added to TSA-BC, 30° C.) was “suppressed” and the Number of colonies [4, 5] was 5. For the same compound, the Number of colonies [4, 6] was 13, the Number of colonies [4, 7] was “+” and the Number of colonies [4, 8] was “+”. The Number of colonies [4, 9] was “+”, the Number of colonies [4, 10] was 3 and the Number of colonies [4, 11] was 10. For the same compound, the Number of colonies [4, 12] was “+”, the Number of colonies [4, 13] was “+” and the Number of colonies [4, 14] was “+”. For the same compound, the Number of colonies ([4]; Ceftazidime 5 mg, 10^1 cfu/mL) was 4, the Number of colonies ([4]; Ceftazidime 5 mg, 10^2 cfu/mL) was 16 and the Number of colonies ([4]; Ceftazidime 5 mg, 10^3 cfu/mL) was “+”. For the same compound, the Number of colonies ([4]; Ceftazidime 5 mg, 10^4 cfu/mL) was “+” and the Number of colonies ([4]; Ceftazidime 5 mg, 10^5 cfu/mL) was “+”.
